# According to patent US11045457B2, “Piperidinyl-3-(aryloxy)propanamides and propanoates” (priority 2018, dated 2021):
# How the values were obtained:
# SSTR4 [1] = target: T1, SSTR4 (Homo sapiens (Human), UniProt P31391); assay: SSTR4 I-125 somatostatin competition binding assay (membranes from CHO-K1 cells overexpressing SSTR4); details: competition with I-125 labeled somatostatin; for IC50: read-out: SSTR4 Binding pIC50 (converted)
# Method: Membranes from CHO-K1 cells overexpressing SSTR4 are purchased from Perkin Elmer (catalog number ES-524-M400UA). Test compounds are suspended in DMSO and then diluted in assay buffer (25 mM HEPES pH 7.4, 10 mM MgCl2, 1 mM CaCl2), 0.5% BSA) plus 0.2 nM I-125 labeled somatostatin (Perkin Elmer catalog number NEX389). […] Then 1 μg of SSTR4 membranes in 50 μL assay buffer are added per well. The Plate is incubated for 60 minutes at room temperature. FilterMat A filters (Perkin Elmer catalog number 1450-421) are pre-soaked in 0.5% PEI (Sigma catalog number P3143). The contents of the assay plate are transferred to filters with a TomTech harvester and washed 5 times with 20 mM HEPES, 100 mM NaCl. The filters are dried in a microwave oven then transferred to sample bag containing a scintillator sheet (Perkin Elmer catalog number 1450-441). The scintillator sheets are melted to filters using a heat block. The filters are then read in a MicroBeta scintillation counter. Binding Ki curves are generated using Activity Base for Screening Data Management and the results are reported as pIC50.
# SSTR1 = SSTR1 (Homo sapiens (Human), UniProt P30872); assay: SSTR1 I-125 somatostatin competition binding assay for selectivity versus SSTR4 (membranes from CHO-K1 cells overexpressing SSTR1); details: for SSTR1 Binding pIC50: competition with I-125 labeled somatostatin, CHO-K1 SSTR1 membranes;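 as to all read-outs here: Filter-based radioligand binding, bound label counted by scintillation after 60 min incubation at room temperature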
# Chain of SSTR1 (P30872 whole entry): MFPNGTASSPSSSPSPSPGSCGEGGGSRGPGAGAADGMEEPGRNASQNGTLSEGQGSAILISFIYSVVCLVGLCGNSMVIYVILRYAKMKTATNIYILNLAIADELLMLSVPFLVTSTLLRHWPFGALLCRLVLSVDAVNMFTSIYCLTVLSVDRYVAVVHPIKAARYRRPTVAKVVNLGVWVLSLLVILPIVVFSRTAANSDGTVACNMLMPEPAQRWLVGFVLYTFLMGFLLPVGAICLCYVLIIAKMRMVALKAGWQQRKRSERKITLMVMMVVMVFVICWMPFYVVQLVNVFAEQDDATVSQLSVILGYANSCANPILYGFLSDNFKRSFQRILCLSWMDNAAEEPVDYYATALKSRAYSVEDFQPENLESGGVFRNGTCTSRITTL
# SSTR4 [2] = target: T1, SSTR4; assay: Inhibition of forskolin stimulated cAMP in CHO-K1 cells overexpressing SSTR4; format: cell-based; details: for EC50: read-out: SSTR4 Activity pEC50 (converted)
# How it was run: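 Read-out is a HTRF LANCE Ultra cAMP competition using Eu-labelled streptavidin and biotin-cAMP, incubated 60 min at room temperature. It followed a 30 min room-temperature exposure of Kreb's Ringer-washed cells to compound plus forskolin. Potency is expressed as pEC50.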
# T1 sequence (P31391 whole entry): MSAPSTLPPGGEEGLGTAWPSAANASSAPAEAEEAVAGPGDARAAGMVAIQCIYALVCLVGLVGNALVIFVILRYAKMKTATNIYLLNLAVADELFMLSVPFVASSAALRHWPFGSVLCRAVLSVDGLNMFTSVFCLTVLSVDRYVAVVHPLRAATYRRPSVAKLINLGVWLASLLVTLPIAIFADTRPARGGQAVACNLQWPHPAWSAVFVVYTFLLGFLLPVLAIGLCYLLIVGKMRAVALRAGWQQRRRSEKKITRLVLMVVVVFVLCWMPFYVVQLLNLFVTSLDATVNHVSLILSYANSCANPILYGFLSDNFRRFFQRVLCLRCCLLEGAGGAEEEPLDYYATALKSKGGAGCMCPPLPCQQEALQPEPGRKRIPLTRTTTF
SMILES,SSTR4 Binding pIC50 (SSTR4 [1]),SSTR1 Binding pIC50 (SSTR1),SSTR4 Activity pEC50 (SSTR4 [2]),IC50 (SSTR4 [1]) [nM],IC50 (SSTR1) [µM],EC50 (SSTR4 [2]) [nM]
"C[C@@H]1C[C@H](NC(=O)C(F)(F)COc2ncccc2C2CC2)CCN1 [Example 211, 3-((3-cyclopropylpyridin-2-yl)oxy)-2,2-difluoro-N-((2R,4R)-2-methylpiperidin-4-yl)propanamide]",7.2,4.8,8.9,,,
"CN(C(=O)C(C)(C)COc1ncccc1C(F)(F)F)[C@@H]1CCNC[C@H]1c1ccccc1 (racemic) [Example 162, trans-N,2,2-trimethyl-N-(3-phenylpiperidin-4-yl)-3-((3-(trifluoromethyl)pyridin-2-yl)oxy)propanamide]",,,,1580,50.1,126
"CN1C[C@H](NC(=O)C(C)(C)COc2ncccc2C(F)(F)F)C2(CC2)C1 [Example 148, (R)-2,2-dimethyl-N-(5-methyl-5-azaspiro[2.4]heptan-7-yl)-3-((3-(trifluoromethyl)pyridin-2-yl)oxy)propanamide]",7.4,5.8,8.1,,,
"Cc1c([C@@H]2CN(C)C[C@H]2NC(=O)C(C)(C)COc2ncccc2C(F)(F)F)cnn1C (relative stereo) [Example 28, trans-N-(4-(1,5-dimethyl-1H-pyrazol-4-yl)-1-methylpyrrolidin-3-yl)-2,2-dimethyl-3-((3-(trifluoromethyl)pyridin-2-yl)oxy)propanamide]",7.7,6.8,8.8,,,
"CN1C[C@@H](NC(=O)C(C)(C)COc2ncccc2C(F)(F)F)[C@H](c2cnn(C)c2)C1 (relative stereo) [Example 19, trans-2,2-dimethyl-N-(1-methyl-4-(1-methyl-1H-pyrazol-4-yl)pyrrolidin-3-yl)-3-((3-(trifluoromethyl)pyridin-2-yl)oxy)propanamide]",6.8,6.1,7.7,,,
"Cc1ccccc1OCC(C)(C)C(=O)NC1CCN(C)CC1 [Example 76, 2,2-dimethyl-N-(1-methylpiperidin-4-yl)-3-(o-tolyloxy)propanamide]",6.7,4.7,7.7,,,
"C[C@H]1CNCC[C@@H]1NC(=O)C(F)(F)COc1ccccc1Cl [Example 216, 3-(2-chlorophenoxy)-2,2-difluoro-N-((3S,4S)-3-methylpiperidin-4-yl)propanamide]",7.7,4.8,9.4,,,
"C[C@@H]1C[C@H](NC(=O)C(F)(F)COc2ncccc2C2CC2)CCN1C [Example 194, 3-((3-cyclopropylpyridin-2-yl)oxy)-N-((2R,4R)-1,2-dimethylpiperidin-4-yl)-2,2-difluoropropanamide]",7.7,4.4,8.4,,,
"CN1CC[C@@H](NC(=O)C(C)(C)COc2ccccc2Br)C1 [Example 69, (R)-3-(2-bromophenoxy)-2,2-dimethyl-N-(1-methylpyrrolidin-3-yl)propanamide]",7.2,5.2,8.4,,,
"CN1CCC(NC(=O)C(C)(C)COc2ncccc2C(F)(F)F)CC1 [Example 41, 2,2-dimethyl-N-(1-methylpiperidin-4-yl)-3-((3-(trifluoromethyl)pyridin-2-yl)oxy)propanamide]",6.4,4.2,7.4,,,
"C[C@@H]1CN(C)C[C@H]1NC(=O)C(C)(C)COc1ncccc1OC(F)(F)F (relative stereo) [Example 180, N-(trans-1,4-dimethylpyrrolidin-3-yl)-2,2-dimethyl-3-((3-(trifluoromethoxy)pyridin-2-yl)oxy)propanamide]",6.5,5.4,7.6,,,
"Cc1ccccc1[C@@H]1CNCC[C@@H]1N(C)C(=O)C(C)(C)COc1ncccc1C(F)(F)F (relative stereo) [Example 156, N,2,2-trimethyl-N-(cis-3-(o-tolyl)piperidin-4-yl)-3-((3-(trifluoromethyl)pyridin-2-yl)oxy)propanamide]",6.4,4.6,7.2,,,
"CN1CCC(NC(=O)C(C)(C)COc2ncccc2C2CC2)CC1 [Example 47, 3-((3-cyclopropylpyridin-2-yl)oxy)-2,2-dimethyl-N-(1-methylpiperidin-4-yl)propanamide]",7.1,4.8,8.1,,,
"C[C@@H]1C[C@H](NC(=O)C(C)(C)COc2ncccc2C2CC2)CCN1C [Example 147, 3-((3-cyclopropylpyridin-2-yl)oxy)-N-((2R,4R)-1,2-dimethylpiperidin-4-yl)-2,2-dimethylpropanamide]",7.5,5.3,8.6,,,
"CCc1ccccc1OCC(C)(C)C(=O)NC1CCN(CC(=O)c2ccc(Cl)cc2)CC1 [Example 104, N-(1-(2-(4-chlorophenyl)-2-oxoethyl)piperidin-4-yl)-3-(2-ethylphenoxy)-2,2-dimethylpropanamide]",8.0,4.8,9.2,,,
"CN1CC[C@@H](NC(=O)C(C)(C)COc2ccccc2C(F)(F)F)C1 [Example 65, (R)-2,2-dimethyl-N-(1-methylpyrrolidin-3-yl)-3-(2-(trifluoromethyl)phenoxy)propanamide]",7.0,5.1,7.9,,,
"CN1CC[C@@H](NC(=O)C(C)(C)COc2ncccc2C2CC2)C1 [Example 53, (R)-3-((3-cyclopropylpyridin-2-yl)oxy)-2,2-dimethyl-N-(1-methylpyrrolidin-3-yl)propanamide]",6.6,4.6,7.4,,,
"CN1CCC(NC(=O)C(C)(C)COc2ncccc2C(F)(F)F)C2(CC2)C1 (centres unmarked) [Example 114, 2,2-dimethyl-N-(5-methyl-5-azaspiro[2.5]octan-8-yl)-3-((3-(trifluoromethyl)pyridin-2-yl)oxy)propanamide]",6.9,4.6,8.0,,,
"CC(C)[C@@H]1CN(C)C[C@H]1NC(=O)C(C)(C)COc1ncccc1C(F)(F)F (racemic) [Example 15, trans-N-(4-isopropyl-1-methylpyrrolidin-3-yl)-2,2-dimethyl-3-((3-(trifluoromethyl)pyridin-2-yl)oxy)propanamide]",,,,158,3.16,20
"C[C@H]1CNCC[C@@H]1NC(=O)C(F)(F)COc1ncccc1C1CC1 [Example 209, 3-((3-cyclopropylpyridin-2-yl)oxy)-2,2-difluoro-N-((3S,4S)-3-methylpiperidin-4-yl)propanamide]",7.6,4.9,9.2,,,
"CN1CC[C@H](NC(=O)C(C)(C)COc2ncccc2OC(F)(F)F)[C@H](c2ccccc2)C1 (relative stereo) [Example 166, 2,2-dimethyl-N-(cis-1-methyl-3-phenylpiperidin-4-yl)-3-((3-(trifluoromethoxy)pyridin-2-yl)oxy)propanamide]",7.4,6.2,,,,
"CC(C)(COc1ccccc1Cl)C(=O)N[C@H]1CCNC[C@@H]1F [Example 187, 3-(2-chlorophenoxy)-N-((3S,4S)-3-fluoropiperidin-4-yl)-2,2-dimethylpropanamide]",8.4,4.8,8.8,,,
"CN1CCC(NC(=O)C(F)(F)COc2ccccc2Cl)CC1 [Example 215, 3-(2-chlorophenoxy)-2,2-difluoro-N-(1-methylpiperidin-4-yl)propanamide]",6.0,,6.7,,,
"Cc1cccnc1OCC(C)(C)C(=O)NC1CCN(C)CC1 [Example 1, 2,2-dimethyl-N-(1-methylpiperidin-4-yl)-3-((3-methylpyridin-2-yl)oxy)propanamide]",6.4,,7.3,,,
"C[C@@H]1CN(C)CC[C@H]1NC(=O)C(C)(C)COc1ncccc1C1CC1 (relative stereo) [Example 20, trans-3-((3-cyclopropylpyridin-2-yl)oxy)-N-(1,3-dimethylpiperidin-4-yl)-2,2-dimethylpropanamide]",7.2,,8.3,,,
